Data from patent US4204003A, “N-(2-Aminocyclopentyl)-N-alkanoylanilides as CNS anti-depressants” (The Upjohn Company, priority 1978, dated 1980).

Key:
[1] = rat liver microsome incubation system (metabolism); format: in vitro ADME; conditions: from the corresponding N-[2-(dimethylamino)cyclopentyl]propionanilide compound
yohimbine toxicity = test: standard yohimbine toxicity potentiation test; format: in vivo; conditions: ip; intraperitoneally
oxotremorine hypothermia = test: standard oxotremorine hypothermia antagonism test; format: in vivo; conditions: ip; intraperitoneally
[2] = literature (J. Pharmaceutical Sciences, December 1974); cited from earlier work
[3] = literature (J. Pharmaceutical Sciences, December 1974); cited from earlier work; remark: listed apart in the source

Compound	ED50 (yohimbine toxicity) [mg/kg]	ED50 (oxotremorine hypothermia) [mg/kg]	other results
2-(N-methylamino)cyclopentylpropionanilide	–	–	metabolite formed in rat liver microsome incubation [1]: is a metabolite of the corresponding N-[2-(dimethylamino)cyclopentyl]propionanilide compound
CCC(=O)N(c1ccc(Cl)c(Cl)c1)[C@@H]1CCC[C@H]1N (relative stereo) [Trans-3,4-dichloro-N-(2-aminocyclopentyl)-propionanilide]	< 1	< 1	–
CCC(=O)N(c1ccc(Cl)c(Cl)c1)[C@@H]1CCC[C@H]1NC (relative stereo) [Trans-3,4-dichloro-N-[2-(N-methylamino)-cyclopentyl]propionanilide]	< 1	< 1	–
ON(c1ccccc1)C1CCCCC1N1CCCC1 (stereo not shown) [N-[2-(N-pyrrolidinyl)cyclohexyl]-N-phenylhydroxylamine]	–	–	CNS properties [2]: do not have useful CNS properties
COc1ccc(C(O)C2CCCCC2N2CCCCC2)cc1 (stereo not shown) [[2-(N-piperidinylcyclohexyl]-(4-methoxyphenyl)methanol]	–	–	diuretic activity [3]: Diuretic activity is alleged
